Laboratory results taken from article PMC3183052, “Immunoprotectivity of HLA-A2 CTL Peptides Derived from Respiratory Syncytial Virus Fusion Protein in HLA-A2 Transgenic Mouse” (PLoS ONE, 2011).
Entries after “also recorded” stand apart in the source; their conditions may differ.

Experiments:
[1] = system: pulmonary CD8+ T lymphocytes; assay: Number of CD8+ T cells in the lungs by flow cytometry after RSV challenge; format: in vivo, mouse; details: day 4 post RSV infection; flow cytometry of lung homogenate
Experimental: Whole lungs were perfused with 5 mL 1× PBS before excision. The isolated lung tissues were incubated with 1 µg/mL collagenase for 30 min before homogenizing with the iron mesh. The homogenate was centrifuged at 1,000 rpm for 10 min at 4°C to sediment the pulmonary cells. The cells were washed with 1× PBS and then resuspended in 1× PBS for further analysis by real-time RT-PCR and flow cytometry. For pulmonary IFN-γ detection, 5×10^6/mL cells were cultured with 10 U/mL recombinant IL-2 for 2 days and the supernatants were collected for ELISA.
Figure 5 Induction of pulmonary IFN-γ and CTL activity in peptide immunized transgenic mice challenged with RSV. At day 4 post RSV infection, lung homogenates were prepared and the following were measured. (A) IFN-γ expression by ELISA, and (B) the number of CD8^+ T cells in the lungs by flow cytometry using PE-cy5-labeled anti-CD8 antibody. (C). Enumeration of CTL activity in the lungs of mice immunized with CD8 peptide epitopes and challenged with RSV. […] The cell mixtures were labeled with 7-AAD and analyzed by flow cytometry. Results are expressed as mean percentage of 7-AAD/CFSE positive cells normalized with un-pulsed DCs. […]

RSV-B1 [2] = assay: Body weight after live RSV challenge; format: in vivo, HLA-A*0201 transgenic C57BL/6 mice; details: peptide-immunized HLA-Tg B6 mice, 10^7 pfu live RSV-B1 i.n.; weight recorded daily for 9 days
Experimental: To screen the immunodominance of epitopic peptide in the induction of RSV-F specific Th1/Th2 expression, HLA-A*0201 transgenic C57BL/6 mice were anesthetized with isoflurane and immunized with 1×10^7 pfu/50 µL of rAd-F0 or rAd-LacZ or 1×10^4 live RSV B1 via the intranasal (i.n.) route. Twenty days later, the mice were given booster immunization i.n. with the same dose. After 10 days of boost, mice were sacrificed and splenocytes were isolated for the cytokine ELISPOT assay. For peptide-based vaccination, transgenic mice were immunized subcutaneously (s.c.) with 50 µg of the individual synthetic peptides emulsified in 25 µL of incomplete Freund's adjuvant (IFA) (Sigma-Aldrich) and then boosted after 10 days s.c. with the same dose of the respective peptides mixed with IFA. Mice were sacrificed 7 days after the booster and splenocytes were isolated for in vitro peptide-restimulation. […] Mice body weight was monitored daily.
Figure 3 Determination of lung viral load and gain of lost body weight. […] (A) The viral load in the lungs of individual mice was determined 4 days after challenge by real-time RT-PCR to quantitate RSV N gene expression as described in the Materials and Methods. […] (B) The body weight of each mouse was recorded daily for 9 days after virus challenge. Results are expressed as % (mean) for 5 mice in each experimental group. […]

RSV-B1 [3] = assay: Lung viral load after live RSV challenge (real-time RT-PCR of RSV N gene); format: in vivo, HLA-A*0201 transgenic C57BL/6 mice; details: two s.c. doses of 50 µg peptide in IFA, challenge i.n. 1×10^7 pfu live RSV-B1, day 4 post-infection; 10 mice per group; vehicle mean = 0.95
Experimental: To screen the immunodominance of epitopic peptide in the induction of RSV-F specific Th1/Th2 expression, HLA-A*0201 transgenic C57BL/6 mice were anesthetized with isoflurane and immunized with 1×10^7 pfu/50 µL of rAd-F0 or rAd-LacZ or 1×10^4 live RSV B1 via the intranasal (i.n.) route. Twenty days later, the mice were given booster immunization i.n. with the same dose. After 10 days of boost, mice were sacrificed and splenocytes were isolated for the cytokine ELISPOT assay. […] Mice body weight was monitored daily.
Lung RNA (5 µg) was mixed with 10 nmole random primers and 2 units of […] reverse transcriptase (Invitrogen) and incubated at 94°C for 10 minutes, 37°C for 30 minutes, and then at 4°C. The resulting cDNA was subjected to quantitative PCR analysis (The LightCycler® 480 Real-Time PCR system) with RSV N specific primer pairs, forward: 5′-[…]-3′ and reverse: 5′-[…]-3′. Expression of mouse GAPDH gene in the tested samples was detected as internal control by using specific primer pairs, forward: 5′-[…]-3′ and reverse: 5′-[…]-3′. The number of cycles (Ct) required for the amplification of the N gene and GAPDH was calculated. The relative expression of the N gene was calculated as followed: the individual Ct (RSV N) obtained from peptide- or vehicle-immunized lung was normalized by the respective Ct (GAPDH), and then [drawing 3] was divided by the mean of [drawing 4] . […]

YMLTNSELL [peptide 14, HLA-A*0201-restricted 9-mer synthetic peptide from F protein of RSV-B1 strain]
pulmonary CD8+ T cell numbers vs vehicle immunization [1]: lower | recovery of body weight loss (in words) (RSV-B1 [2]): recovered only in the last two days | expression of RSV N gene in the lungs (relative, normalized to GAPDH), mean (RSV-B1 [3]): no significant reduction; also recorded: reduced lung viral load only marginally
